In test [1] the target is T1, human histamine H3 receptor (Homo sapiens (Human), UniProt Q9Y5N1). As to the kind of experiment: Radioligand competition binding assay, human H3 receptor. Conditions: [3H]-N-α-methylhistamine competition binding.
Test [2] has as its target rat histamine H3 receptor (Rattus norvegicus (Rat), UniProt Q9QYN8). As to the kind of experiment: Radioligand competition binding assay, rat H3 receptor. As to conditions: [3H]-N-α-methylhistamine competition binding. Here is the method:
To determine the effectiveness of representative compounds of this invention as histamine-3 receptor ligands (H3 receptor ligands), the following tests were conducted according to previously described methods (see European Journal of Pharmacology 1990, 188, 219-227; Journal of Pharmacology and Experimental Therapeutics 1995, 275, 598-604; Journal of Pharmacology and Experimental Therapeutics 1996, 276, 1009-1015; and Biochemical Pharmacology 1973, 22, 3099-3108).
The rat H3 receptor was cloned and expressed in cells, and competition binding assays carried out, according to methods previously described (see Esbenshade, et al. Journal of Pharmacology and Experimental Therapeutics 2005, 313, 165-175; Esbenshade et al., Biochemical Pharmacology 2004, 68, 933-945; and Krueger, et al. Journal of Pharmacology and Experimental Therapeutics 2005, 314, 271-281). Membranes were prepared from C6 or HEK293 cells, expressing the rat histamine H3 receptor, by homogenization on ice in TE buffer (50 mM Tris-HCl buffer, pH 7.4, containing 5 mM EDTA), 1 mM benzamidine, 2 μg/ml aprotinin, 1 μg/ml leupeptin, and 1 μg/ml pepstatin. The homogenate was centrifuged at 40,000 g for 20 minutes at 4° C. This step was repeated, and the resulting pellet was resuspended in TE buffer. Aliquots were frozen at −70° C. until needed. On the day of assay, membranes were thawed and diluted with TE buffer.
Membrane preparations were incubated with [^3H]-N-α-methylhistamine (0.5-1.0 nM) in the presence or absence of increasing concentrations of ligands for H3 receptor competition binding. The binding incubations were conducted in a final volume of 0.5 ml TE buffer at 25° C. and were terminated after 30 minutes. Thioperamide (30 μM) was used to define non-specific binding. All binding reactions were terminated by filtration under vacuum onto polyethylenimine (0.3%) presoaked Unifilters (Perkin Elmer Life Sciences) or Whatman GF/B filters followed by three brief washes with 2 ml of ice-cold TE buffer. Bound radiolabel was determined by liquid scintillation counting. For all of the radioligand competition binding assays, IC50 values and Hill slopes were determined by Hill transformation of the data and pKi values were determined by the Cheng-Prusoff equation.
In general terms: Loss of bound radioactivity is the signal in a displacement assay; it reports binding, not function.

The target of test [3] is T1, human histamine H3 receptor. As to the kind of experiment: FLIPR functional assay (Ca2+, HEK-293 cells coexpressing Gαqi5), human H3 receptor. The test is classed as cell-based. As to conditions: for EC50: FLIPR agonist potency; for Emax: HEK293, FLIPR, percentage of the response to 1 μM RAMH, read-out: Human Maximum (%). The source says: There are many methods available to show the effectiveness of compounds as histamine H3 receptor ligands. Histamine H3 receptors from mammalian species have been cloned. Methods to clone, express, and assess the potency and functional activity of such cloned genes are well known to those skilled in the art of molecular biology. […] In the present case, to determine the potency and effectiveness of representative compounds of this invention as histamine-H3 receptor ligands (H3 receptor ligands), the following tests were conducted according to previously described methods (see Esbenshade, et al., Journal of Pharmacology and Experimental Therapeutics 2003, 305, 887-896, Esbenshade, et al., Biochemical Pharmacology 2004, 68, 933-945, and in Krueger, et al., Journal of Pharmacology and Experimental Therapeutics 2005, 314, 271-281): histamine H3 receptors were cloned and stably expressed in HEK-293 (human embryonic kidney) cells coexpressing a Gαqi5. Before testing, cells were loaded with a Ca^+2 sensitive fluorescent dye, in this case Fluo-4. For partial agonist or full agonist ligands, addition of compound to the cells led to an increase in intracellular Ca^+2 which was detected by FLIPR (Fluorescence Imaging Plate Reader; Molecular Devices, Sunnyvale, Calif.) technology. The fluorescence intensities measured before addition of the test compound were subtracted from the fluorescence intensities at later time points. Peak response values determined at each concentration of ligand were expressed as a percentage of the response obtained with a maximal concentration (1 μM) of the full agonist R-α-methyl-histamine (RAMH). Concentration versus response data were analyzed to obtain compound potency as EC50 values for full and partial agonists.

Another test addresses human H3R (Homo sapiens (Human), UniProt Q9Y5N1). As to the kind of experiment: GTPγS functional assay, membranes from HEK cells expressing the human H3R. The test is classed as biochemical. As to conditions: for Emax: 5 min, [35S]GTPγS bound as percentage of basal, read-out: Human Maximum (%); for EC50: GTPγS agonist potency. Here is the method:
(§1) Membranes from HEK cells expressing the human H3R, or from C6 cells expressing the rat H3R, were prepared by homogenization in cold buffer containing 50 mM Tris-HCl (pH 7.4), 5 mM EDTA, 10 mM MgCl2, 1 mM benzamidine, 2 μg/ml aprotinin, 1 μg/ml leupeptin, and 1 μg/ml pepstatin. The homogenate was centrifuged at 40,000 g for 20 min at 4° C., and the resulting pellet was resuspended in 50 mM Tris-HCl (pH 7.4), 5 mM EDTA, and 10 mM MgCl2 and homogenized. Glycerol and bovine serum albumin were added to a final concentration of 10% glycerol and 1% bovine serum albumin. Membranes were diluted in GTPγS assay buffer (25 mM HEPES, 2.5 mM MgCl2, and 75 mM NaCl, pH 7.4) and 10 μg of membrane protein was incubated in a 96-well deep-well block in the presence of 5.0 μM unlabeled GDP, approximately 0.5 nM of [^35S]GTPγS, and increasing concentrations of test compounds. Samples were incubated at 37° C. for 5 min and the assays were terminated by the addition of cold buffer (50 mM Tris-HCl, 75 mM NaCl, and 2.5 mM MgCl2, pH 7.6) and subsequent harvesting onto a Packard Unifilter 96-well GF/B plate followed by extensive washing. Microscint 20 (PerkinElmer Life Sciences) was added to the samples, and bound [^35S]GTPγS was determined using the Topcount (Perkin Elmer Life Sciences). The percentage of [^35S]GTPγS bound in each sample was calculated as a percentage of that bound to control samples incubated in the absence of the H3R agonists (basal). Data were analyzed from experiments performed in triplicate using GraphPad Prism to obtain pEC50 values, Hill slopes, and maximal % response.
A general note: Binding of GTPγS marks nucleotide exchange on a G protein.

The next test has as its target rat H3R (Rattus norvegicus (Rat), UniProt Q9QYN8). As to the kind of experiment: GTPγS functional assay, membranes from C6 cells expressing the rat H3R. Conditions: for Emax: 5 min, read-out: Rat Maximum (%); for EC50: GTPγS agonist potency. The test is classed as biochemical. The procedure: as §1
Where [4] appears, read: [35S]GTPγS bound as percentage of basal.

The structures appear in SMILES notation. Where a name gives a salt, the structure may show the parent alone.

rat H3R, sequence (Q9QYN8 whole entry): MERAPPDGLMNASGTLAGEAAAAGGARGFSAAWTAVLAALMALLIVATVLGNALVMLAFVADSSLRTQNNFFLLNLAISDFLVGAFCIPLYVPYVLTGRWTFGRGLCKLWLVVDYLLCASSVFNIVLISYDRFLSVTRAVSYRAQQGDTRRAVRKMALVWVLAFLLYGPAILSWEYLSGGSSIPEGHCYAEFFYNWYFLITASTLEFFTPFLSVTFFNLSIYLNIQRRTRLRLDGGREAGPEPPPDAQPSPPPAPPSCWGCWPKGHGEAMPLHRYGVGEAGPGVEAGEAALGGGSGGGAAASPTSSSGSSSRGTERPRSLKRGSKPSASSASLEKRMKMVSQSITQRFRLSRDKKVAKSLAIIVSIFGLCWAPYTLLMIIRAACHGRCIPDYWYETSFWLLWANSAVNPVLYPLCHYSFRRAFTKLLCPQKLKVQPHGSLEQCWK
rat histamine H3 receptor, sequence (Q9QYN8 whole entry): as above
human H3R, sequence (Q9Y5N1 whole entry): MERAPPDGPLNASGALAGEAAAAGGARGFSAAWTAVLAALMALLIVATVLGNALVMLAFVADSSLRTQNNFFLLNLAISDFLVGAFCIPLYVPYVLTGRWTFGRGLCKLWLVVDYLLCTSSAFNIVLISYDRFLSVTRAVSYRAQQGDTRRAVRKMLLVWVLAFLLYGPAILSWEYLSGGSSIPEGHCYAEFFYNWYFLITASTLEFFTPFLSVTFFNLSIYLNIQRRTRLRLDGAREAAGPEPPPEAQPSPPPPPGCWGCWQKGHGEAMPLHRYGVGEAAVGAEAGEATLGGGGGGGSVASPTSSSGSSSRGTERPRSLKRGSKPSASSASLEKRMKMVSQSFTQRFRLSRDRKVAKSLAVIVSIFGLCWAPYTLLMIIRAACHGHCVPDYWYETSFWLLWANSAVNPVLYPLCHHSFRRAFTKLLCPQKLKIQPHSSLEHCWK
T1 sequence (Q9Y5N1 whole entry): as above

One may read the Ki as the equilibrium dissociation constant of an inhibitor or competing ligand from its target. A higher Ki goes with lower affinity. In general, EC50 refers to the concentration giving half of the maximal effect. Higher therefore signals a less potent agent. For the compound `CN(C)CCNc1ccnc(N)n1` [Example 2, N^4-(2-(dimethylamino)ethyl)pyrimidine-2,4-diamine 2,2,2-trifluoroacetate], the Ki in test [1] was 53.7 nM; in test [2] it was 20 nM. Also, the EC50 worked out at 85.1 nM in test [3], 525 nM at human H3R and 339 nM at rat H3R. Also, the values for the Emax (in test [3]; on human H3R; on rat H3R (setting [4])) were 77.7%, 160% and 183%, respectively.
As to `CN(C)CCN(C)c1ccnc(N)n1` [Example 3, N^4-(2-(dimethylamino)ethyl)-N^4-methylpyrimidine-2,4-diamine dihydrochloride], the Ki was 257 nM in test [1] and greater than 309 nM in test [2].
For `NCCCNc1ccnc(N)n1` [Example 6, N^4-(3-aminopropyl)pyrimidine-2,4-diamine dihydrochloride], the Ki worked out at 61.7 nM in test [1] and 13.2 nM in test [2]. Also, the EC50 in test [3] is 13.4 nM; on human H3R, 537 nM; on rat H3R it was 309 nM. Also, the Emax in test [3] is 93%; at human H3R it was 162%; on rat H3R (setting [4]) it was 168%.
Take `CNCCCNc1ccnc(N)n1` [Example 7, N^4-(3-(methylamino)propyl)pyrimidine-2,4-diamine dihydrochloride]: the Ki in test [1] came out at 28.2 nM; in test [2] it was 81.3 nM.
Consider `CN(CCCN)c1ccnc(N)n1` [Example 8, N^4-(3-aminopropyl)-N^4-methylpyrimidine-2,4-diamine dihydrochloride], for which the figures for the Ki in test [1] and in test [2] were 316 nM and 195 nM, respectively.
For `CN(C)CCCN(C)c1ccnc(N)n1.O=C(O)C(O)C(O)C(=O)O` [Example 9, N^4-(3-(dimethylamino)propyl)-N^4-methylpyrimidine-2,4-diamine(2R,3R)-2,3-dihydroxysuccinate], the Ki in test [1] was 182 nM; in test [2], greater than 309 nM. At rat H3R, this compound had an EC50 of 1950 nM. In addition, at rat H3R (setting [4]), the “Rat Maximum (%)” value came to 110%.
In test [1], `CC(C)(CN)CNc1ccnc(N)n1` [Example 11, N^4-(3-amino-2,2-dimethylpropyl)pyrimidine-2,4-diamine] gave a Ki greater than 339 nM. Also, the Ki in test [2] is greater than 316 nM. Besides, on human H3R, the Emax was determined as 111% and the EC50 is 5750 nM.
With `Nc1nccc(NC2CCN(Cc3ccccc3)CC2)n1` [Example 12, N^4-(1-benzylpiperidin-4-yl)pyrimidine-2,4-diamine 2,2,2-trifluoroacetate], the Ki is 72.4 nM in test [1] and 24.5 nM in test [2]. Besides, the values for the Emax at human H3R and on rat H3R (setting [4]) were 139% and 136%, respectively. For the same compound, the EC50 on human H3R came out at 871 nM; at rat H3R, 324 nM.
In the case of `CN1CCN(c2ccnc(N)n2)CC1` [Example 13, 4-(4-methylpiperazin-1-yl)pyrimidin-2-amine], the Ki is 13.8 nM in test [1] and 7.41 nM in test [2]. Further, the figures for the Emax at human H3R and at rat H3R (setting [4]) were 127% and 135%, respectively. For the same compound, the EC50 was found to be 129 nM on human H3R and 53.7 nM at rat H3R.
Turning to `CC(C)(C)OC(=O)N1CCN(c2ccnc(N)n2)CC1` [Example 14, tert-butyl 4-(2-aminopyrimidin-4-yl)piperazine-1-carboxylate], the Ki in test [1] is greater than 380 nM. In addition, the Ki in test [2] is greater than 355 nM. In addition, in test [3], the midpoint of the response, the EC50, lay at 316 nM and the Emax was determined as 67.6%.
With `Nc1nccc(N2C[C@H]3CN(Cc4ccccc4)C[C@H]3C2)n1` [Example 19, 4-((3aR,6aS)-5-benzylhexahydropyrrolo[3,4-c]pyrrol-2(1H)-yl)pyrimidin-2-amine], the figures for the Ki in test [1] and in test [2] were 158 nM and 170 nM, respectively. Moreover, the concentration giving a half-maximal response (EC50) in test [3] worked out at 2110 nM; at rat H3R, 447 nM. The Emax in test [3] is 50.2%; on rat H3R (setting [4]) it was 116%.
Consider `Nc1nccc(N2CCCN(Cc3ccccc3)CCC2)n1` [Example 21, 4-(5-benzyl-1,5-diazocan-1-yl)pyrimidin-2-amine], for which the values for the Ki in test [1] and in test [2] were 162 nM and 55 nM, respectively. Also, the Emax at human H3R came out at 120%; on rat H3R (setting [4]), 135%. In addition, the values for the EC50 at human H3R and at rat H3R were 115 nM and 214 nM, respectively.
For `Nc1nccc(NC2CNC2)n1` [Example 22, N^4-(azetidin-3-yl)pyrimidine-2,4-diamine trihydrochloride], the Ki in test [1] was 33.1 nM; in test [2], 97.7 nM. Further, the Emax on human H3R stood at 216%; on rat H3R (setting [4]), 156%. Besides, the EC50 at human H3R turned out to be 457 nM; at rat H3R, 676 nM.
As to `Nc1nccc(N2CCC3(CC2)CNC3)n1` [Example 23, 4-(2,7-diazaspiro[3.5]nonan-7-yl)pyrimidin-2-amine trihydrochloride], the Ki in test [1] turned out to be 67.6 nM; in test [2], 12.3 nM. For the same compound, the Emax on human H3R was determined as 147%; at rat H3R (setting [4]), 126%. Besides, the half-maximal effective concentration (EC50) at human H3R turned out to be 513 nM; at rat H3R it was 110 nM.
Turning to `Nc1nccc(NC2CCNCC2)n1` [Example 24, N^4-(piperidin-4-yl)pyrimidine-2,4-diamine dihydrochloride], the Ki in test [1] was 324 nM; in test [2], 105 nM.
With `Nc1nccc(N2CCNCC2)n1` [Example 25, 4-(piperazin-1-yl)pyrimidin-2-amine dihydrochloride], the Ki stood at 24 nM in test [1] and 5.75 nM in test [2]. The figures for the Emax on human H3R and at rat H3R (setting [4]) were 150% and 141%, respectively. Besides, the EC50 at human H3R turned out to be 132 nM; on rat H3R it was 30.2 nM.
With `C[C@@H](N)Cc1c[nH]cn1` [R-α-methyl-histamine (RAMH), R-α-methyl-histamine, reference compound], the figures for the Emax on human H3R and on rat H3R (setting [4]) were 240% and 224%, respectively.

Values taken from patent publication US8796297B2, “4-substituted-2-amino-pyrimidine derivatives” (AbbVie Inc., priority 2009, dated 2014).
